Patent publication US20250051375A1, “ANTI-HIV COMPOUNDS” (Gilead Sciences, Inc., priority 2023, published 2025)
≈ marks a conversion by molar mass, not a printed value.

What was measured:
[1] = Intestinal S9 Assay (human GI S9); format: in vitro ADME; settings: 1.0 mg/mL S9 protein; for Human GI S9 [Intermediate A] / Human GI S9 [Intermediate A] % / Human GI S9 T½: 2 μM, TRIS pH 7.4; for half-life at 2 μM: human, TRIS pH 7.4, read-out: Human GI S9 T½
Experimental: (§1) Reagents. Stock solutions of test compounds in dimethyl sulfoxide (DMSO) having a final concentration of 10 mM were prepared and used in all experiments. Sekisui XenoTech (Kansas City, KS) provided pooled intestinal S9 fractions. All other chemicals were purchased from Sigma-Aldrich (St. Louis, MO) or VWR (West Chester, PA). Internal Standard/Quench (IS/Q) used to stop reactions was 100 nM labetalol in (by volume) formic acid (1%) and acetonitrile (99%).
(§2) Intestinal S9 Assay: For each test compound, an aliquot of the test compound was added to S9 stock diluted with TRIS buffer (100 mM TRIS, 1 mM ZnCl2, 1 mM MgCl2), pH 7.4, to obtain an incubation protein concentration of 1.0 mg/mL. The incubation was initiated by the addition of the substrate to the S9 reaction mixture to a final concentration of 2 μM. At 0, 10, 20, 30, 60 and 120 min, 25 μL aliquots of the reaction mixture were transferred to plates containing 225 μl of IS/Q solution. After quenching, the plates were centrifuged at 3000×g for 30 minutes. 150 μL aliquots of each supernatant were transferred to new plates and 150 μL water was added. Aliquots (10 μL) of the prepared samples were analyzed on a Thermo Q-Exactive mass spectrometer as described below.
(§3) Liquid Chromatography-Mass Spectrometry: Quantification of test compounds and control substrate was performed by analyte/internal standard peak area ratio (PAR) values measured on a Thermo Q-Exactive mass spectrometer coupled to a Dionex UltiMate 3000 HPLC with a Leap Technologies HTC PAL autosampler. The column used for analysis was a Thermo Scientific Hypersil GOLD (1.9 μm particle size, 50×2.1 mm). Mobile phase A consisted of 0.1% (v/v) formic acid in water. Mobile phase B consisted of 0.1% (v/v) formic acid in acetonitrile. Elution of analytes was achieved by a series of linear gradients varying the proportions of A and B. The mass spectrometer was calibrated on a weekly basis and mass tolerance of 5 ppm was used.
(§4) Data Analysis. Metabolic stabilities were determined by measuring the rates of disappearance of test compound and positive control substrate. Data (% of substrate remaining) were plotted on a semi-log scale and fitted using an exponential decline model:
(§5) where • Ct% of substrate remaining at time=t • C0% of substrate remaining at time=0 • t time • T½ half-life • The Half-life (T½) is determined by the following equation:
(§6) [formula] • Assuming a first-order reaction, the slope (k) is extrapolated from the aforementioned plotted data.

Solubility in FaSSIF = settings: 23 °C, pH 6.5, fassif, thermodynamic from solid
Method in brief: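 Concentration measured by HPLC-UV after solid compound was dosed at 5 mg/mL into pH 6.5 fasted-state simulated intestinal fluid containing taurocholate and lecithin (4:1 molar) and vortexed.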

[2] = molecular target: bovine intestinal alkaline phosphatase (Bos taurus (Bovine), UniProt P19111); test: BiALP: conversion by bovine intestinal alkaline phosphatase; format: in vitro ADME; settings: 2 μM substrate, 100 ng/mL iALP, Tris pH 7.8, 37° C., 60 minutes; for [Intermediate A] or [Amprenavir]: parent formed
Method in brief: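 Compounds at 2 μM final were incubated 60 min at 37° C in 0.1 M Tris-HCl pH 7.8 with 1 mM MgCl2 and 1 mM ZnCl2, with or without 100 ng/mL iALP (0.01 units/mL). Samples were quenched with acetonitrile/formic acid containing labetalol. Conversion was quantified by LC-MS peak area ratios against a 2 μM product standard.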

[3] = Intestinal S9 Assay (dog GI S9); format: in vitro ADME; settings: 1.0 mg/mL S9 protein; for Dog GI S9 [Intermediate A] / Dog GI S9 [Intermediate A] %: 2 μM, TRIS pH 7.4; for half-life at 2 μM: dog, TRIS pH 7.4, read-out: Dog GI S9 T½
Experimental: as §1, §2, §3, §4, §5, §6

HIV-1 IIIB strain = test: MT-4 HIV Wild Type Virus Infection Assay (IIIB Virus); format: cell-based; settings: Human immunodeficiency virus 1, IIIB, MT4, 120 h, MT-4 cells acutely infected with HIV-1 IIIB, 5 day incubation, Cell-titer glo
Method in brief: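 MT-4 cells at 2×10^6 cells/ml in RPMI/10% FBS were acutely infected with HIV-1 IIIB for 1 h at 37° C, diluted 25× and added to serially diluted compounds. After 5 days at 37° C, viability read by CellTiter-Glo luminescence; EC50 from dose-response curves.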

bovine intestinal alkaline phosphatase, sequence (P19111 20-506): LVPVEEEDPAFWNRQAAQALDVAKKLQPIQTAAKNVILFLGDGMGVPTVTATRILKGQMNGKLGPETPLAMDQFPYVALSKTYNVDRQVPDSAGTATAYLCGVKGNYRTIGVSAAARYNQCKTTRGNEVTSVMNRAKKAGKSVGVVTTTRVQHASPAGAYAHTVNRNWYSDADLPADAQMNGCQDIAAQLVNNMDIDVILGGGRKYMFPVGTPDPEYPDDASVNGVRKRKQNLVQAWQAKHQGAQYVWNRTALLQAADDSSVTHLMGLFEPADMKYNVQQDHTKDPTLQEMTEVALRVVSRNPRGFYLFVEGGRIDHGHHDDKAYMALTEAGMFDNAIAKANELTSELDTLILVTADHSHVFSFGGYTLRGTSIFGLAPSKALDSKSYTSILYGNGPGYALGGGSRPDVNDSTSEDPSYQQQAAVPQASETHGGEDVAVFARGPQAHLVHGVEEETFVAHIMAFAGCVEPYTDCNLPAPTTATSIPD

| SMILES | Human GI S9 [Intermediate A] [1] [nM] | Human GI S9 [Intermediate A] % [1] [%] | half-life at 2 μM [1] [h] | solubility at 2 h (Solubility in FaSSIF) [µg/mL] | [Compound] [2] [nM] | biALP Intermediate A or [Amprenavir] (% of total) [2] | [Intermediate A] or [Amprenavir] [2] [nM] | Dog GI S9 [Intermediate A] [3] [nM] | Dog GI S9 [Intermediate A] % [3] [%] | half-life at 2 μM [3] [h] | EC50 (HIV-1 IIIB strain) [nM] | Human GI S9 T½ [1] [h] |
| --- | --- | --- | --- | --- | --- | --- | --- | --- | --- | --- | --- | --- |
| COC(=O)N[C@H](C(=O)N[C@@H](Cc1ccc(C#Cc2cnc(N3CC4CCC(C3)N4C3COC3)nc2)cc1)[C@H](CN(Cc1c(F)cc(-c2ccn(C(F)F)n2)cc1F)NC(=O)[C@@H](NC(=O)OC)C(C)(C)C(F)(F)F)OC(=O)CC(C)(C)c1c(CC(=O)Nc2cc(C(=O)O)cc(C(=O)O)c2)cccc1OP(=O)(O)O)C(C)(C)C(F)(F)F [Example 19] | 323.6 | 22.1 | 3.83 | 3650 (≈ 2230 µM) | 1405.7 | 18.4 % of total | 317.9 | 1045.1 | 94.7 | 0.3 | 38.9 |  |
| COC(=O)N[C@H](C(=O)N[C@@H](Cc1ccc(C#Cc2cnc(N3CC4CCC(C3)N4C3COC3)nc2)cc1)[C@H](CN(Cc1c(F)cc(-c2ccn(C(F)F)n2)cc1F)NC(=O)[C@@H](NC(=O)OC)C(C)(C)C(F)(F)F)OC(=O)CC(C)(C)c1c(CC(=O)NC2(C(=O)O)CCOCC2)cc(C)cc1OP(=O)(O)O)C(C)(C)C(F)(F)F [Example 31] |  |  | 8.24 | 3510 (≈ 2180 µM) | 2125.6 |  |  |  |  | 3.71 | 276 |  |
| COC(=O)N[C@H](C(=O)N[C@@H](Cc1ccc(C#Cc2cnc(N3CC4CCC(C3)N4C3COC3)nc2)cc1)[C@H](CN(Cc1c(F)cc(-c2ccn(C(F)F)n2)cc1F)NC(=O)[C@@H](NC(=O)OC)C(C)(C)C(F)(F)F)OC(=O)CC(C)(C)c1c(CC(=O)N[C@@H](CCS(=O)(=O)O)C(=O)O)cccc1OP(=O)(O)O)C(C)(C)C(F)(F)F [Example 40] |  |  | 4.76 | 4910 (≈ 3000 µM) | 1458.8 |  |  |  |  | 0.537 | 40.5 |  |
| COC(=O)N[C@H](C(=O)N[C@@H](Cc1ccc(C#Cc2cnc(N3CC4CCC(C3)N4C3COC3)nc2)cc1)[C@H](CN(Cc1c(F)cc(-c2ccn(C(F)F)n2)cc1F)NC(=O)[C@@H](NC(=O)OC)C(C)(C)C(F)(F)F)OC(=O)CC(C)(C)c1c(CC(=O)N2CCC[C@H]2C(=O)O)cccc1OP(=O)(O)O)C(C)(C)C(F)(F)F [Example 46] |  |  | 7.41 | 2870 (≈ 1830 µM) | 1864.7 |  |  |  |  | 5.08 | 190 |  |
| COC(=O)N[C@H](C(=O)N[C@@H](Cc1ccc(C#Cc2cnc(N3CC4CCC(C3)N4C3COC3)nc2)cc1)[C@H](CN(Cc1c(F)cc(-c2ccn(C(F)F)n2)cc1F)NC(=O)[C@@H](NC(=O)OC)C(C)(C)C(F)(F)F)OC(=O)CC(C)(C)c1c(CC(=O)N2C[C@H]3[C@@H]([C@H]2C(=O)O)C3(C)C)cc(C)cc1OP(=O)(O)O)C(C)(C)C(F)(F)F [Example 47] |  |  | 6.39 | 3620 (≈ 2230 µM) | 1950.3 |  |  |  |  | 7.34 | 593 |  |
| COC(=O)N[C@H](C(=O)N[C@@H](Cc1ccc(C#Cc2cnc(N3CC4CCC(C3)N4C3COC3)nc2)cc1)[C@H](CN(Cc1c(F)cc(-c2ccn(C(F)F)n2)cc1F)NC(=O)[C@@H](NC(=O)OC)C(C)(C)C(F)(F)F)OC(=O)CC(C)(C)c1c(CC(=O)N2[C@@H](C)CC[C@H]2C(=O)O)cc(C)cc1OP(=O)(O)O)C(C)(C)C(F)(F)F [Example 54] |  |  | 12.9 | 3080 (≈ 1930 µM) | 1661.6 |  |  |  |  | 9.44 | 94 |  |
| COC(=O)N[C@H](C(=O)N[C@@H](Cc1ccc(C#Cc2cnc(N3CC4CCC(C3)N4C3COC3)nc2)cc1)[C@H](CN(Cc1c(F)cc(-c2ccn(C(F)F)n2)cc1F)NC(=O)[C@@H](NC(=O)OC)C(C)(C)C(F)(F)F)OC(=O)CC(C)(C)c1c(CC(=O)N2[C@H](C(=O)O)C[C@@H]3CCCC[C@@H]32)cc(C)cc1OP(=O)(O)O)C(C)(C)C(F)(F)F [Example 55] |  |  | 12.7 | < 1000 | 1659.2 |  |  |  |  | 12 | 3480 |  |
| COC(=O)N[C@H](C(=O)N[C@@H](Cc1ccc(C#Cc2cnc(N3CC4CCC(C3)N4C3COC3)nc2)cc1)[C@H](CN(Cc1c(F)cc(-c2ccn(C(F)F)n2)cc1F)NC(=O)[C@@H](NC(=O)OC)C(C)(C)C(F)(F)F)OC(=O)CC(C)(C)c1c(CC(=O)N2C[C@@H](O)C[C@H]2C(=O)O)cc(C)cc1OP(=O)(O)O)C(C)(C)C(F)(F)F [Example 56] |  |  |  | 2400 (≈ 1500 µM) | 1576.7 |  |  |  |  | 6.89 | 254 | 13.2 |
| COC(=O)N[C@H](C(=O)N[C@@H](Cc1ccc(C#Cc2cnc(N3CC4CCC(C3)N4C3COC3)nc2)cc1)[C@H](CN(Cc1c(F)cc(-c2ccn(C(F)F)n2)cc1F)NC(=O)[C@@H](NC(=O)OC)C(C)(C)C(F)(F)F)OC(=O)CC(C)(C)c1c(CC(=O)N2CC[C@@H](O)[C@H]2C(=O)O)cc(C)cc1OP(=O)(O)O)C(C)(C)C(F)(F)F [Example 57] |  |  | 11 | 4100 (≈ 2560 µM) | 1612.8 |  |  |  |  | 7.19 | 290 |  |
| COC(=O)N[C@H](C(=O)N[C@@H](Cc1ccc(C#Cc2cnc(N3CC4CCC(C3)N4C3COC3)nc2)cc1)[C@H](CN(Cc1c(F)cc(-c2ccn(C(F)F)n2)cc1F)NC(=O)[C@@H](NC(=O)OC)C(C)(C)C(F)(F)F)OC(=O)CC(C)(C)c1c(CC(=O)N2C[C@H](O)C[C@H]2C(=O)O)cc(C)cc1OP(=O)(O)O)C(C)(C)C(F)(F)F [Example 58] |  |  | 12.1 | 4460 (≈ 2800 µM) | 1573.2 |  |  |  |  | 7.23 | 370 |  |
| COC(=O)N[C@H](C(=O)N[C@@H](Cc1ccc(C#Cc2cnc(N3CC4CCC(C3)N4C3COC3)nc2)cc1)[C@H](CN(Cc1c(F)cc(-c2ccn(C(F)F)n2)cc1F)NC(=O)[C@@H](NC(=O)OC)C(C)(C)C(F)(F)F)OC(=O)CC(C)(C)c1c(CC(=O)N2C[C@H](OC)C[C@H]2C(=O)O)cc(C)cc1OP(=O)(O)O)C(C)(C)C(F)(F)F [Example 59] |  |  |  | 3600 (≈ 2230 µM) | 1520.4 |  |  |  |  | 6.67 | 658 | 13.2 |
| COC(=O)N[C@H](C(=O)N[C@@H](Cc1ccc(C#Cc2cnc(N3CC4CCC(C3)N4C3COC3)nc2)cc1)[C@H](CN(Cc1c(F)cc(-c2ccn(C(F)F)n2)cc1F)NC(=O)[C@@H](NC(=O)OC)C(C)(C)C(F)(F)F)OC(=O)CC(C)(C)c1c(CC(=O)NCc2ccc(S(N)(=O)=O)cc2)cc(C)cc1OP(=O)(O)O)C(C)(C)C(F)(F)F [Example 62] | 22.2 | 1.8 |  |  | 2213.4 | 0 % of total | 0 | 38.3 | 3.1 | 13.2 | 280 |  |
